One assay has as its target T1, FXR LBD, GST (Homo sapiens, UniProt Q96RI1).
T1 construct: FXR LBD, GST; purchased Invitrogen PV4834
T1 sequence (Q96RI1 262-486 limits assumed): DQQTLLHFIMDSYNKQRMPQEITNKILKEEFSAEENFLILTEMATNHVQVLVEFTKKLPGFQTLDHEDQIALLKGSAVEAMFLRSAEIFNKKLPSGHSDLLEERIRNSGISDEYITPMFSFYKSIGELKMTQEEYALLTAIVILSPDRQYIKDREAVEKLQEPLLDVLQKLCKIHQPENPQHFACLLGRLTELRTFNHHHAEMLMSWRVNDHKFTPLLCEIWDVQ
Description: FXR Binding Assay (TR-FRET, Fluorescein-SRC2-2 coactivator peptide). The note with it: for Emax: % Activity relative to positive control, read-out: Pct Effect (Emax %); for EC50: TR-FRET FXR LBD coactivator recruitment. How it is done:
The interaction between the present compounds and FXR are evaluated by Time-Resolved Fluorescence Resonance Energy Transfer (TR-FRET) competition assay. FRET describes a radiation-free energy transfer between two chromophores: a donor fluorophore in its excited state can transfer energy to an acceptor fluorophore in close proximity (typically <10 nm). In contrast to standard FRET, TR-FRET unites time-resolved fluorescence (TRF) and the FRET principle, TRF use a long-lifetime lanthanide chelate as the donor species, while lanthanide chelates are unique in that their excited-state lifetime can be on the order of a millisecond or longer. Suitable neighbors for FRET are known in the art and can be obtained.
The assay was performed in following steps: first, prepared a) 1 mM compounds (100×) in DMSO; b) reaction buffer containing 1× buffer G with 10 mM DTT; c) 4×FXR LBD (20 nM) in 1× chilled buffer G. Second, performed 3-fold serial dilution of 1 mM test compounds using DMSO from 1 mM, 10 doses in a 96-well plate (249944, Nunc). Then, used complete buffer G to dilute each 100× compounds serial dilution to 2×. Third, added 10 μl 2× compound serial dilution into 384-well plate (3677, Corning). Then, added 5 μl FXR LBD into the assay plate. Prepared a solution containing 2 μM fluorescein-SRC2-2 (4×) and 20 nM Tb anti-GST antibody (4×) in buffer G at room temperature and started the reaction by adding 5 μl the above solution into each well of the assay plate. Centrifuged the assay plates at 1000 g for 1 min and then incubated at room temperature for lhr protected from light. Finally, the plate was read at wavelengths of 520 nm and 495 nm on Envision 2104 plate reader (PerkinElmer).
A ratio (Ratio520 nm/495 nm−Ratiobackground) was calculated for each well. The activity ratio was calculated as follow: […]
Ratiopositive: The average ratio for the positive control across the plate.
Ratiovehicle: The average ratio for negative controls across the plate.
(§1) EC50 was calculated by fitting % Activity values and log of compound concentrations to nonlinear regression (dose response-variable slope) with GraphPad 5.0.
(§2) X: log of compound concentration.
On the technique in general: In TR-FRET formats the signal depends on donor and acceptor labels being close together.

Assay [1] deals with T2, hFXR-LBD (FXR-GAL4 chimeric receptor) (Homo sapiens, UniProt Q96RI1).
T2 construct: host or cells: HEK293T
T2 sequence (Q96RI1 262-486 limits assumed): T1 sequence (Q96RI1 262-486 limits assumed)
Description: FXR Transactivation Assay (GAL4 luciferase reporter in HEK293T cells). The format is cell-based. As to the method:
FXR Transactivation Assay
The present compounds were tested to assess their ability to stimulate FXR transactivation activity. The hFXR-LBD, coding sequence was inserted into the pBIND expression vector (Promega, E1581) to express FXR-GAL4 binding domain chimeric receptors. This expression vector and reporter vector (pGL4.35 which carry a stably integrated GAL4 promoter driven luciferase reporter gene) were co-transfected into HEK293T host cells. Upon agonist binding to the corresponding FXR-GAL4 chimeric receptor, the chimeric receptor binds to the GAL4 binding sites and stimulates the reporter gene.
All the working stock were shake for 5 min on plate shaker (QILINBEIER). Second, all cells were cultured as ATCC recommended. HEK293T cells were assayed in exponential growth phase. Removed culture medium from the flask and rinsed cells with PBS. Added TrypLE solution to the flask and make cells detach. Next, cells were washed once with complete growth medium. Then, cells were pelleted and washed twice with PBS to remove phenol red and resuspend them in medium to a proper concentration. Only cells with viability greater than 90% were used for assays. Seeded 6×10^6 HEK293T cells into a 100 mm dish and incubated at 37° C. under 5% CO2 atmosphere for 16 h. Third, Trans-IT reagent and Opti-MEM mix by inversion and incubate 5 min at room temperature. The cell transfection was performed by mixing DNA and the reagent mixture, as well as 6 μg GAL4-FXR plasmid or 2 μg pGL4.35 luciferase plasmid, respectively. The reagent mixture was added to a 100 mm dish and incubated for 4-7 hrs at 37° C. under 5% CO2 atmosphere. Fourth, transferred 75 nl compound dilutions into 384-well assay plates (PerkinElmer) and seeded HEK293T cells at 17,000 cells/well using phenol red-free DMEM containing 5% charcoal/dextran-treated FBS. Then, cells were incubated for 16-20 h at 37° C. under 5% CO2 atmosphere. Finally, added 25 μl Steady-Glo™ Luciferase Assay Reagent into each well of 384-well assay plate, and then shake plate for 5 min protected from light on a plate shaker. Then, the luminescence value was read on Evision 2104 plate reader (PerkinElmer).
The activity ratio was calculated as follow: […]
RLU: Resulting Luminescence
RLUpositive: The average RLU for the positive controls across the plate.
RLUvehicle: The average RLU for negative controls across the plate.
as §1, §2
For orientation: In a reporter assay the amount or activity of a reporter protein is the signal.

As usually defined, the Emax is the greatest response seen or fitted, relative to the assay's reference. One may read the EC50 as the concentration needed to bring the measured effect to its halfway point. High values mean a less potent agent, low ones a more potent agent. As to `Cn1cc(C(=O)O)c2ccc(N3CCCN(CCc4c(-c5c(Cl)cccc5Cl)noc4C4CC4)CC3)cc21` [Example I7, 6-(4-(2-(5-cyclopropyl-3-(2,6-dichlorophenyl)isoxazol-4-yl)ethyl)-1,4-diazepan-1-yl)-1-methyl-1H-indole-3-carboxylic Acid], at FXR LBD, GST, the Emax turned out to be 98.1% and the EC50 was determined as 25 nM. The compound also registered an EC50 in assay [1] of 743 nM.

With `CC1CN(c2ccc3c(C(=O)O)cn(C)c3c2)CCN1CCc1c(-c2c(Cl)cccc2Cl)noc1C1CC1` (stereo not drawn) [Example I8, 6-(4-(2-(5-cyclopropyl-3-(2,6-dichlorophenyl)isoxazol-4-yl)ethyl)-3-methylpiperazin-1-yl)-1-methyl-1H-indole-3-carboxylic Acid], on FXR LBD, GST, the maximal effect (Emax) was 202% and the EC50 is 94 nM. In assay [1], the EC50 was determined as 138 nM.

On to `Cn1cc(C(=O)O)c2ccc(N3CCN(CCc4c(-c5c(F)cccc5Cl)noc4C4CC4)CC3)cc21` [Example I10, 6-(4-(2-(3-(2-chloro-6-fluorophenyl)-5-cyclopropylisoxazol-4-yl)ethyl)piperazin-1-yl)-1-methyl-1H-indole-3-carboxylic Acid], for which, at FXR LBD, GST, the Emax came to 173% and the EC50 was determined as 728 nM. This compound displayed an EC50 in assay [1] of 524 nM.

Turning to `CC1CN(CCc2c(-c3c(Cl)cccc3Cl)noc2C2CC2)CCN1c1ccc2c(C(=O)O)cn(C)c2c1` (stereo not drawn) [Example I12, 6-(4-(2-(5-cyclopropyl-3-(2,6-dichlorophenyl)isoxazol-4-yl)ethyl)-2-methylpiperazin-1-yl)-1-methyl-1H-indole-3-carboxylic Acid], at FXR LBD, GST, the Emax was found to be 147% and the midpoint of the response, the EC50, lay at 133 nM. Besides, in assay [1], a half-maximal response (EC50) required 129 nM.

For `O=C(O)c1ccc(N2CCN(CCc3c(-c4c(Cl)cccc4Cl)noc3C3CC3)CC2)cc1` [Example I14, 4-(4-(2-(5-cyclopropyl-3-(2,6-dichlorophenyl)isoxazol-4-yl)ethyl)piperazin-1-yl)benzoic Acid], on FXR LBD, GST, the Emax is 142% and the response was half-maximal at 655 nM (EC50). The compound also had an EC50 in assay [1] of 912 nM.

As for `O=C(O)c1c[nH]c2cc(N3CCN(CCc4c(-c5c(Cl)cccc5Cl)noc4C4CC4)CC3)ccc12` [Example I15, 6-(4-(2-(5-cyclopropyl-3-(2,6-dichlorophenyl)isoxazol-4-yl)ethyl)piperazin-1-yl)-1H-indole-3-carboxylic Acid], the Emax at FXR LBD, GST was 168%. Besides, the EC50 is 419 nM at FXR LBD, GST and 667 nM in assay [1].

With `Cn1nc(C(=O)O)c2ccc(N3CCN(CCc4c(-c5c(Cl)cccc5Cl)noc4C4CC4)CC3)cc21` [Example I17, 6-(4-(2-(5-cyclopropyl-3-(2,6-dichlorophenyl)isoxazol-4-yl)ethyl)piperazin-1-yl)-1-methyl-1H-indazole-3-carboxylic Acid], at FXR LBD, GST, the Emax amounted to 131% and the EC50 stood at 46 nM. The EC50 in assay [1] turned out to be 1230 nM.

With `Cn1nc2cc(N3CCN(CCc4c(-c5c(Cl)cccc5Cl)noc4C4CC4)CC3)ccc2c1C(=O)O` [Example I18, 6-(4-(2-(5-cyclopropyl-3-(2,6-dichlorophenyl)isoxazol-4-yl)ethyl)piperazin-1-yl)-2-methyl-2H-indazole-3-carboxylic Acid], the Emax on FXR LBD, GST came to 142%. The EC50 amounted to 46 nM on FXR LBD, GST and 436 nM in assay [1].

Consider `Cn1cc(C(=O)O)c2ccc(N3CCN(CCc4c(-c5ccccc5OC(F)(F)F)noc4C4CC4)CC3)cc21` [Example I20, 6-(4-(2-(5-cyclopropyl-3-(2-(trifluoromethoxy)phenyl)isoxazol-4-yl)ethyl)piperazin-1-yl)-1-methyl-1H-indole-3-carboxylic Acid], for which, on FXR LBD, GST, the Emax was determined as 193% and the EC50 turned out to be 450 nM. The compound also had an EC50 in assay [1] of 906 nM.

As for `COc1cccc(Cl)c1-c1noc(C2CC2)c1CCN1CCN(c2ccc3c(C(=O)O)cn(C)c3c2)CC1` [Example I21, 6-(4-(2-(3-(2-chloro-6-methoxyphenyl)-5-cyclopropylisoxazol-4-yl)ethyl)piperazin-1-yl)-1-methyl-1H-indole-3-carboxylic Acid], on FXR LBD, GST, the Emax was 85.1% and it took 890 nM to reach a half-maximal effect (EC50). Moreover, a half-maximal response in assay [1] (EC50) required 2860 nM.

In the case of `Cc1cccc(Cl)c1-c1noc(C2CC2)c1CCN1CCN(c2ccc3c(C(=O)O)cn(C)c3c2)CC1` [Example I22, 6-(4-(2-(3-(2-chloro-6-methylphenyl)-5-cyclopropylisoxazol-4-yl)ethyl)piperazin-1-yl)-1-methyl-1H-indole-3-carboxylic Acid], on FXR LBD, GST, the Emax came out at 163% and the midpoint of the response, the EC50, lay at 162 nM. In assay [1], this compound came in with a half-maximal effective concentration (EC50) of 634 nM.

`CC(CN1CCN(c2ccc3c(C(=O)O)cn(C)c3c2)CC1)c1c(-c2c(Cl)cccc2Cl)noc1C1CC1` (stereo not drawn) [Example I24, 6-(4-(2-(5-cyclopropyl-3-(2,6-dichlorophenyl)isoxazol-4-yl)propyl)piperazin-1-yl)-1-methyl-1H-indole-3-carboxylic Acid]: the Emax at FXR LBD, GST was determined as 89.8%. Further, the EC50 at FXR LBD, GST stood at 422 nM; in assay [1], 1860 nM.

Regarding `Cn1cc(C(=O)O)c2ccc(N3CCN(CCc4c(-c5c(Cl)cccc5Cl)noc4C4CC4)CC3(C)C)cc21` [Example I25, 6-(4-(2-(5-cyclopropyl-3-(2,6-dichlorophenyl)isoxazol-4-yl)ethyl)-2,2-dimethylpiperazin-1-yl)-1-methyl-1H-indole-3-carboxylic Acid], the Emax on FXR LBD, GST stood at 151%. The EC50 at FXR LBD, GST was 83 nM; in assay [1] it was 288 nM.

`Cn1cc(C(=O)O)c2ccc(N3CCN(CCc4c(-c5ccccc5C(F)(F)F)noc4C4CC4)CC3)cc21` [Example I26, 6-(4-(2-(5-cyclopropyl-3-(2-(trifluoromethyl)phenyl)isoxazol-4-yl)ethyl)piperazin-1-yl)-1-methyl-1H-indole-3-carboxylic Acid]: at FXR LBD, GST, the Emax came out at 214% and the EC50 came to 882 nM. Moreover, the EC50 in assay [1] worked out at 1210 nM.

Turning to `Cc1onc(-c2c(Cl)cccc2Cl)c1CCN1CCN(c2ccc3c(C(=O)O)cn(C)c3c2)CC1` [Example I27, 6-(4-(2-(3-(2,6-dichlorophenyl)-5-methylisoxazol-4-yl)ethyl)piperazin-1-yl)-1-methyl-1H-indole-3-carboxylic Acid], at FXR LBD, GST, the Emax is 91.1% and the EC50 is 454 nM. Further, it took 1800 nM to reach a half-maximal effect in assay [1] (EC50).

As for `Cn1cc(C(=O)O)c2ccc(N3C4CCC3CN(CCc3c(-c5c(Cl)cccc5Cl)noc3C3CC3)C4)cc21` [Example I30, 6-(3-(2-(5-cyclopropyl-3-(2,6-dichlorophenyl)isoxazol-4-yl)ethyl)-3,8-diazabicyclo[3.2.1]octan-8-yl)-1-methyl-1H-indole-3-carboxylic Acid], on FXR LBD, GST, the Emax amounted to 111% and the EC50 turned out to be 60 nM. The same compound gave an EC50 in assay [1] of 1200 nM.

The values above are taken from US20220227745A1, “Compounds For Modulating FXR” (NANJING RUIJIE PHARMA TECH CO., LTD., priority 2019, published 2022).
